Tests used:
Format in all cases: cell-based
[1] = test system: human colon cancer cell line SW 480; assay: Growth inhibition assay (MTT), SW 480; details: Table VI, 6 days incubation
Description: (§1) As another example of evaluation of cytotoxicity, cancer cell lines were also used for a growth inhibition assay. The human colon cancer cell lines SW 480 and HT 29 and the murine melanoma cell line B16F10 were used. […] After confluent growth, the cells were trypsinated and resuspended in RPMI plus 10% FCS to a cell concentration of 50000 cells per ml in case of colon cancer cell lines and 20000 in case of B16F10. 100 μl of this cell suspension were transferred in each well of a 96 well microtiter plate and incubated for 1 day at 37° C. in a CO2-incubator. Subsequently, further 100 μl RPMI medium and 1 μl of a DMSO solution, containing the artemisinin derivatives were added. The growth inhibition was estimated after 6 days incubation at 36° C. using the MTT assay.
(§2) 25 μl MTT solution (3-(4,5-dimethylthiazol-2-yl)-2,5-diphenyltetrazolium-bromid) of a starting concentration of 5 mg/ml H2O were added and incubated at 37° C. for 5 h. Subsequently, 100 μl iso-propanol per well were added. After 15 min incubation 100 μl H2O were added. After 30 min shaking, the extinction was measured at 595 nm using a ELISA-Multiplate Reader.

[2] = test system: human colon cancer cell line HT 29; assay: Growth inhibition assay (MTT), HT 29; details: Table VI, 6 days incubation
Description: as §1, §2

[3] = test system: murine melanoma cell line B16F10; assay: Growth inhibition assay (MTT), B16F10; details: Table VI, 6 days incubation
Description: as §1, §2

[4] = test system: Rat 6 subclone of the immortalized F2408 embryo cell line (R6); assay: Screening for cytotoxicity, cell count by Coulter Counter, R6 cells; details: for LD50 (Day 3) R6: day 3 after addition; for LD50 (Day 6) R6: day 6 after addition
Description: (§3) Compounds of the invention were screened against Rat 6 subclone of the immortalized F2408 embryo cell line, and Rat 6 (R6T24) cells transfected and transformed by a c-H-ras oncogene. The screening involved placing the R6 and R6T24 cell lines plated at 10^3 cells per well into a 12-well microtiter culture plate for 24 hours. The compounds were added at final concentrations from 0.1-100 μM, and cells were trypsized and counted by Coulter Counter at day 3 and day 6 after the addition. Untreated cells were assigned a survival value of 100%.

[5] = test system: Rat 6 (R6T24) cells transfected and transformed by a c-H-ras oncogene; assay: Screening for cytotoxicity, cell count by Coulter Counter, R6T24 cells; details: R6T24 cell line; for LD50 (Day 3) R6T24: day 3 after addition; for LD50 (Day 6) R6T24: day 6 after addition
Description: as §3

SMILES | LD50 SW 480 [1] | LD50 HT 29 [2] | LD50 B16F18 [3] | LD50 (Day 3) R6 ([4]; Table V) | LD50 (Day 6) R6 ([4]; Table V) | LD50 (Day 3) R6 ([4]; Table VA) | LD50 (Day 6) R6 ([4]; Table VA) | LD50 (Day 3) R6T24 ([5]; Table V) | LD50 (Day 6) R6T24 ([5]; Table V) | LD50 (Day 3) R6T24 ([5]; Table VA) | LD50 (Day 6) R6T24 ([5]; Table VA)
COc1ccccc1C1O[C@@H]2O[C@@]3(C)CC[C@H]4[C@H](C)CC[C@@H]([C@H]1C)[C@@]24OO3 (stereo partly shown) [Example 29] | >10000 nM | >10000 nM | >10000 nM |  |  |  |  |  |  |  | 
C[C@@H]1CC[C@H]2[C@@H](C)C(Nc3ccc(F)cc3)O[C@@H]3O[C@@]4(C)CC[C@@H]1[C@]32OO4 (stereo partly shown) [Example 31] |  |  |  | 0.34 µM | 0.27 µM | 0.34 µM | 0.27 µM | 0.23 µM | 0.14 µM | 0.23 µM | 0.14 µM
C[C@@H]1CC[C@H]2[C@@H](C)C(Nc3ccc(Br)cc3)O[C@@H]3O[C@@]4(C)CC[C@@H]1[C@]32OO4 (stereo partly shown) [Example 33] | 60 nM | 500 nM | 200 nM |  |  |  |  |  |  |  | 
C[C@@H]1CC[C@H]2[C@@H](C)C(Nc3ccc(I)cc3)O[C@@H]3O[C@@]4(C)CC[C@@H]1[C@]32OO4 (stereo partly shown) [Example 34] | 100 nM | 500 nM | 150 nM |  |  |  |  |  |  |  | 
C[C@@H]1CC[C@H]2[C@@H](C)C(NCc3ccccc3)O[C@@H]3O[C@@]4(C)CC[C@@H]1[C@]32OO4 (stereo partly shown) [Example 36] | 60 nM | 400 nM | 50 nM |  |  |  |  |  |  |  | 
C[C@@H]1CC[C@H]2[C@@H](C)C(N3CCN(C)CC3)O[C@@H]3O[C@@]4(C)CC[C@@H]1[C@]32OO4 (stereo partly shown) [Example 51] |  |  |  |  |  | 0.33 µM | 0.12 µM |  |  | 0.33 µM | 0.11 µM
COc1cc(OC)c(C2O[C@@H]3O[C@@]4(C)CC[C@H]5[C@H](C)CC[C@@H]([C@H]2C)[C@@]35OO4)c(OC)c1 (stereo partly shown) [Example 59] | 1500 nM | 1500 nM | 1500 nM |  |  |  |  |  |  |  | 
Cc1cc(C)c(C2O[C@@H]3O[C@@]4(C)CC[C@H]5[C@H](C)CC[C@@H]([C@H]2C)[C@@]35OO4)c(C)c1 (stereo partly shown) [Example 60] | 150 nM | 300 nM | 250 nM |  |  |  |  |  |  |  | 
Cc1cc(C)c(C2O[C@@H]3O[C@@]4(C)CC[C@H]5[C@H](C)CC[C@@H]([C@H]2C)[C@@]35OO4)cc1C (stereo partly shown) [Example 61] | 150 nM | 300 nM | 250 nM |  |  |  |  |  |  |  | 
C[C@@H]1CC[C@H]2[C@@H](C)C(OC(=O)c3c4ccccc4nc4ccccc34)O[C@@H]3O[C@@]4(C)CC[C@@H]1[C@]32OO4 (stereo partly shown) [Example 65] |  |  |  | 2.73 µM | 2.52 µM |  |  | 3.21 µM | 1.60 µM |  | 
CC1CCC2C(C)C(OC(=O)c3ccc4c(c3)C(=O)c3ccccc3C4=O)OC3OC4(C)CCC1C32OO4 (stereo not shown) [Example 66] |  |  |  | 0.34 µM | 3.60 µM | 0.34 µM | 3.6 µM | 0.32 µM | 0.32 µM | 0.32 µM | 0.32 µM
CC1CCC2C(C)C(OCc3cccc4c3ccc3ccccc34)OC3OC4(C)CCC1C32OO4 (stereo not shown) [Example 82] |  |  |  |  |  | 0.12 µM | 0.12 µM |  |  | 0.05 µM | 0.06 µM
C[C@@H]1CC[C@H]2[C@@H](C)C(=O)N(Cc3cccc(F)c3)[C@@H]3O[C@@]4(C)CC[C@@H]1[C@@]23OO4 [Example 87] |  |  |  | >50.00 µM | 17.5 µM |  |  | 6.14 µM | 1.07 µM |  | 
C[C@@H]1CC[C@H]2[C@@H](C)C(=O)N(Cc3ccccc3)[C@@H]3O[C@@]4(C)CC[C@@H]1[C@@]23OO4 [Example 88] |  |  |  | 46.67 µM | 18.49 µM | 47.0 µM | 18.49 µM | 10.45 µM | 5.24 µM | 10.45 µM | 5.24 µM
